Among the test systems are U251 CNS; SK-MEL-2 melanoma; HOP-92 NSCLC; RPMI-8226 leukemia; IGROV1 ovarian; UO-31 renal; SNB-19 CNS; OVCAR-8 ovarian; DU-145 prostate; SK-MEL-28 melanoma.
Holding throughout (experiment): NCI tumour cell line growth inhibition, 48 h

Data on 13 molecules can be found in PubChem BioAssay (NCI).

Molecules are shown by their SMILES.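 Dose response: 5 concentrations. Exposure: 48 h. Format: 96-well plates. Endpoint: linear interpolation; highest concentration if not reached. Here, GI50 denotes the concentration required for 50% inhibition of growth. TGI is the concentration that stops growth completely.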

For the molecule `CCCNC1=C2CC(C)CC(OC)[C@@H](O)[C@H](C)/C=C(\C)C(OC(N)=O)C(OC)/C=C\C=C(/C)C(=O)NC(=CC1=O)C2=O` (stereo not given in full), the GI50 in the assay on U251 CNS was 29.5 µM; in the assay with SK-MEL-2 melanoma, 13.1 µM; in the assay with HOP-92 NSCLC it was 16.8 µM; in the assay with RPMI-8226 leukemia it was 0.463 µM; in the assay with UO-31 renal, 0.558 µM; in the assay with OVCAR-8 ovarian it was 0.393 µM. Further, in the assay with DU-145 prostate, the GI50 is 14.8 µM. Moreover, the TGI is greater than 100 µM in the assay with U251 CNS; 31.4 µM in the assay on SK-MEL-2 melanoma; 42.2 µM with RPMI-8226 leukemia; 41.6 µM in the assay with IGROV1 ovarian; 32.2 µM in the assay on UO-31 renal; greater than 100 µM in the assay on SNB-19 CNS. For the same molecule, the TGI in the assay on OVCAR-8 ovarian was found to be 32.5 µM; with DU-145 prostate it was 65.5 µM.
As to `NC(=O)C(c1ccccc1)N1OC2C(=O)N(c3ccccc3)C(=O)C2C1c1c2ccccc2c(Cl)c2ccccc12` (stereo not given), the TGI in the assay with U251 CNS, with SK-MEL-2 melanoma, in the assay on HOP-92 NSCLC, in the assay with RPMI-8226 leukemia, in the assay with IGROV1 ovarian and with UO-31 renal was greater than 100 µM each time. Moreover, the TGI with SNB-19 CNS, in the assay with OVCAR-8 ovarian, with SK-MEL-28 melanoma and in the assay with DU-145 prostate was greater than 100 µM each time.
`O=C(O)CN(CC(=O)O)C1CCCCC1N(CC(=O)O)CC(=O)NCCN=C=S` (stereo not given): the TGI in the assay with U251 CNS, in the assay with SK-MEL-2 melanoma, in the assay on HOP-92 NSCLC, with RPMI-8226 leukemia, in the assay on IGROV1 ovarian and in the assay with UO-31 renal was greater than 100 µM throughout. Moreover, the TGI with SNB-19 CNS, in the assay with OVCAR-8 ovarian, with SK-MEL-28 melanoma and with DU-145 prostate was greater than 100 µM throughout.
Consider `COc1cc(/C=C/C(=N\NS(=O)(=O)c2ccc(C)cc2)c2sc(NNC(C)=O)nc2C)ccc1O`, for which the TGI with U251 CNS, in the assay with SK-MEL-2 melanoma, with HOP-92 NSCLC, with RPMI-8226 leukemia, in the assay with IGROV1 ovarian and in the assay with UO-31 renal was greater than 100 µM in each case. Besides, the TGI with SNB-19 CNS, in the assay on OVCAR-8 ovarian, in the assay with SK-MEL-28 melanoma and with DU-145 prostate was greater than 100 µM in each case.
As for `C=C1c2nc3ccccc3n2C=C(c2ccccc2)N1c1ccc([N+](=O)[O-])cc1`, the TGI is 22.6 µM with U251 CNS; 56.3 µM in the assay on SK-MEL-2 melanoma; 21.9 µM in the assay with HOP-92 NSCLC; greater than 55.7 µM in the assay with RPMI-8226 leukemia; 27 µM with IGROV1 ovarian; 16 µM in the assay with UO-31 renal. The TGI in the assay on SNB-19 CNS is 24.4 µM; in the assay on OVCAR-8 ovarian it was 43.4 µM; in the assay with SK-MEL-28 melanoma, greater than 65.2 µM; in the assay with DU-145 prostate it was greater than 74.7 µM.
As to `O=C1OCC(O)=C1C(c1ccc(Cl)cc1)c1cc2c(cc1O)OCO2` (stereo not given), the TGI in the assay with SK-MEL-2 melanoma, in the assay on HOP-92 NSCLC, in the assay on IGROV1 ovarian, in the assay with UO-31 renal, with SNB-19 CNS and with SK-MEL-28 melanoma was greater than 100 µM each time. In addition, the TGI in the assay with DU-145 prostate is greater than 100 µM.
`C=C(Br)C(C)(Cl)CCC(Br)C(C)(C)Cl` (stereo not given): the TGI with U251 CNS was greater than 100 µM; with HOP-92 NSCLC, 95.6 µM; with IGROV1 ovarian, greater than 100 µM; with UO-31 renal, greater than 100 µM; in the assay with SNB-19 CNS, greater than 100 µM; with OVCAR-8 ovarian it was greater than 100 µM. In addition, the TGI in the assay on SK-MEL-28 melanoma and in the assay with DU-145 prostate was greater than 100 µM in each case.
As for `COc1ccc(CNc2nc(NCc3ccc(OC)c(OC)c3)nc(NC3CCCCC3)n2)cc1`, the TGI in the assay with U251 CNS, with SK-MEL-2 melanoma, in the assay on HOP-92 NSCLC, with IGROV1 ovarian, in the assay on UO-31 renal and in the assay on SNB-19 CNS was greater than 100 µM throughout. The TGI in the assay on OVCAR-8 ovarian, in the assay on SK-MEL-28 melanoma and in the assay on DU-145 prostate was greater than 100 µM each time.
On to `O=c1[nH][nH]c(=O)n1Cc1ccccc1Cn1c(=O)[nH][nH]c1=O`, for which the TGI with U251 CNS, in the assay on SK-MEL-2 melanoma, in the assay on HOP-92 NSCLC, in the assay on RPMI-8226 leukemia, in the assay with IGROV1 ovarian and with UO-31 renal was greater than 100 µM each time. Further, the TGI in the assay with SNB-19 CNS, in the assay on OVCAR-8 ovarian, in the assay on SK-MEL-28 melanoma and in the assay on DU-145 prostate was greater than 100 µM in each case.
With `COC(=O)c1cc2c(n1S(=O)(=O)c1ccc(C)cc1)C(=O)C(=O)c1[nH]cc(C(=O)OCc3ccccc3)c1-2`, the TGI in the assay on U251 CNS amounted to 0.809 µM; in the assay with SK-MEL-2 melanoma, 0.358 µM; in the assay with HOP-92 NSCLC it was 0.725 µM; in the assay on RPMI-8226 leukemia it was 0.515 µM; in the assay with IGROV1 ovarian it was 0.559 µM; with UO-31 renal, 0.685 µM. Moreover, the TGI in the assay on SNB-19 CNS turned out to be 0.441 µM; in the assay on OVCAR-8 ovarian, 0.706 µM; with SK-MEL-28 melanoma, 0.226 µM; in the assay with DU-145 prostate, 0.276 µM.
`O=C(O)c1cccc2c1/C(=N/Nc1ccccc1)CC2`: the TGI in the assay with U251 CNS, in the assay on SK-MEL-2 melanoma, with HOP-92 NSCLC, in the assay on RPMI-8226 leukemia, with IGROV1 ovarian and in the assay with UO-31 renal was greater than 100 µM throughout. Besides, the TGI in the assay on OVCAR-8 ovarian, in the assay with SK-MEL-28 melanoma and in the assay with DU-145 prostate was greater than 100 µM in each case.
As to `Oc1cccc2c(Cl)ccnc12`, the TGI was 22 µM in the assay with U251 CNS; 21.5 µM in the assay on HOP-92 NSCLC; greater than 29.7 µM with IGROV1 ovarian; greater than 95.3 µM with UO-31 renal; greater than 100 µM in the assay on SNB-19 CNS; greater than 100 µM in the assay with OVCAR-8 ovarian. The TGI was 35.9 µM in the assay with SK-MEL-28 melanoma and greater than 100 µM with DU-145 prostate.
Turning to `C=C(C1=CC(=O)C(C)(C)O1)[C@@H]1CC=C([C@@H]2CC[C@H]3[C@@]2(C)CC[C@H]2C(C)(C)C(=O)[C@H](O)C[C@]32C)[C@H](O)O1`, the TGI in the assay with U251 CNS is 3.06 µM; in the assay on SK-MEL-2 melanoma it was 5.56 µM; with HOP-92 NSCLC it was 4.11 µM; in the assay with IGROV1 ovarian, 5.48 µM; in the assay with UO-31 renal, 2.88 µM; in the assay with SNB-19 CNS it was 24.8 µM. The TGI in the assay with OVCAR-8 ovarian amounted to 4.75 µM; in the assay with SK-MEL-28 melanoma it was 12.2 µM; in the assay with DU-145 prostate, 2.91 µM.
